Test results as given in patent publication US20050273177A1, “Prosthetic device having drug delivery properties” (priority 2004, published 2005).

Assay: In vitro PGE-1 elution from coated stents overlaid with a permeable polymer membrane, measured by HPLC
Type: physicochemical
Method: Various materials presently used in pharmaceutical preparations as solubilizers, crystallization inhibitors, suspension stabilizers and lyophilization agents were mixed with PGE-1. The mixtures were dissolved in solvent systems composed of ethanol, chloroform, water, or mixtures thereof. Prior to coating, stents (provided by different stent manufacturers) were cleaned by sonification in absolute ethanol for thirty minutes, and dried. Each stent was weighed before and after coating. The amount of PGE-1 in the coating solution was determined by high performance liquid chromatography analysis (HPLC), and used to calculate the percent by weight of PGE-1 on the stent. To confirm this value, the coating was dissolved (from the stent) and the PGE-1 content analyzed by HPLC.
Drug coatings on the stents were assessed using scanning electron microscopy (SEM) for: (a) smoothness, (b) uniformity, and (c) lack of cracking. Stents that met these criteria, were overlaid with a thin membrane of non-erodable polymer matrix to retard the release of PGE-1 from the surface of the stents. Vapor-deposition of the polymer matrix was carried out according to the manufacturer's protocol, and the thickness of the polymer matrix membrane was measured using a Tencor device.
Using the most desirable coating combination, twenty coronary stents were coated with either 100 micrograms or 250 micrograms of PGE-1, and overlaid with the polymer matrix membrane. Five stents from each drug concentration were expanded by insertion of a balloon catheter. The stents were examined by SEM after deposition of the pharmaceutical layer 14, after applying the membrane 16, and after expansion of the stents 12.
PGE-1 elution profiles were determined for each group of stents 12. In vitro PGE-1 release curves were performed using HPLC. Drug elution profiles were measured in phosphate buffered saline (pH 7.4) using a LabQuake 360° degree rotator, at ambient temperature. At each time point, the stents were removed from the one milliliter sample (typically, after 24 hours) and transferred to the next aliquot. HPLC analysis of the eluent was performed using a Waters Alliance system equipped with a 996 photodiode array detector.
HPLC Program Conditions/Settings:
Column: 4.6 mm×150 mm Reverse Phase C18
Photo-diode array UV detector set to scan 190 to 300 nm
Solvent system: 35% Acetonitrile/65% water with 0.1% acetic acid
In Example 2 a second set of twenty stents were coated as described above, except the polymer membrane overcoat 16 was twice the thickness as the former.

Q: Which “Period of initial burst of PGE-1 release” value (FIGS. 2A and 2B, thinner membrane, 100 or 250 μg PGE-1) does the source give for `CCCCC[C@H](O)/C=C/[C@H]1[C@H](O)CC(=O)[C@@H]1CCCCCCC(=O)O` [PGE-1, prostaglandin E-1] here?
A: 48-96 hours

Q: And the “Duration of slow, sustained release of the drug” value (FIGS. 2A and 2B, thinner membrane, after the initial burst)?
A: approximately sixty

Q: What about the “Release profile with thicker polymer overcoat compared with thinner membrane” value (FIGS. 3A and 3B, membrane twice the thickness) of the same compound?
A: initial release of PGE-1 is delayed and the overall amount of PGE-1 eluted from the stents 12 over time is reduced

Q: And the “PGE-1 Released (%)” value (Study 1, 73 days, expanded stent coated with 100 μg PGE-1, PBS pH 7.4, ambient temperature)?
A: 82%

Q: And the “PGE-1 Released (%)” value (Study 1, 73 days, expanded stent coated with 250 μg PGE-1, PBS pH 7.4, ambient temperature)?
A: 83%

Q: What about the “PGE-1 Released (%)” value (Study 1, 73 days, unexpanded stent coated with 100 μg PGE-1, PBS pH 7.4, ambient temperature) of the same compound?
A: 37%

Q: And the “PGE-1 Released (%)” value (Study 1, 73 days, unexpanded stent coated with 250 μg PGE-1, PBS pH 7.4, ambient temperature)?
A: 46%

Q: What about the “PGE-1 Released (%)” value (Study 2 (membrane twice the thickness), 35 days, expanded stent coated with 100 μg PGE-1, PBS pH 7.4) of the same compound?
A: 71%

Q: And the “PGE-1 Released (%)” value (Study 2 (membrane twice the thickness), 35 days, expanded stent coated with 250 μg PGE-1, PBS pH 7.4)?
A: 26%

Q: And the “PGE-1 Released (%)” value (Study 2 (membrane twice the thickness), 35 days, unexpanded stent coated with 100 μg PGE-1, PBS pH 7.4)?
A: 19%

Q: What about the “PGE-1 Released (%)” value (Study 2 (membrane twice the thickness), 35 days, unexpanded stent coated with 250 μg PGE-1, PBS pH 7.4) of the same compound?
A: 26%
